From paper PMC4521012, “Distortion of the Major Histocompatibility Complex Class I Binding Groove to Accommodate an Insulin-derived 10-Mer Peptide” (The Journal of Biological Chemistry, 2015)

What was measured:
[1] = test system: G9C8 T-cell clone (insulin-reactive CD8+ T-cells); assay: Staining of insulin-specific CD8 T-cells with H-2K^d·peptide tetramers; type: cell-based, NOD mouse; details: flow cytometry; for Tetramer+ (% of G9C8 clone stained by H-2K^d·peptide tetramer): splenocytes of G9Cα−/− NOD mice, 50 nM dasatinib preincubation, 0.5 μg tetramer, 15 min at 37 °C, gated on live CD8+ cells
[2] = test system: G9C8 T-cell clone (insulin-reactive CD8+ T-cells); assay: T-cell functional assays (proliferation, MIP1β and IFNγ production); type: cell-based, NOD mouse; details: in all assays: [3H]thymidine proliferation, MIP1β and IFNγ ELISA; CD8+ T-cells with bone marrow-derived dendritic cells 10:1
Method: Splenic CD8^+ T-cells were purified using a Miltenyi MACS CD8^+ isolation kit (>90% purity) and cultured at 10:1 with bone marrow-derived dendritic cells with the LYLVCGERGF (G9GF), LYLVCGERG (G9G), or LYLVCGERV (G9V) peptide in RPMI medium supplemented with 5% FCS, 2 mM L-glutamine, 0.05 mM 2-mercaptoethanol, penicillin/streptomycin. Each sample was plated in duplicate. After 48 h of incubation, cells were pulsed with 0.5 μCi of [^3H]thymidine for 18 h, harvested, and counted to determine [^3H]thymidine incorporation.
Supernatants were removed from the proliferation assay cultures prior to the addition of [^3H]thymidine. MIP1β was measured by sandwich ELISA (R&D systems), whereas IFNγ was measured using a similar protocol (BD Biosciences) with the modification that the capture antibody was diluted in carbonate buffer and incubated at 4 °C overnight. Plates were blocked at 37 °C for 1 h, and the detection antibody was incubated for 1 h at room temperature.

[3] = target: H-2K^d (Mus musculus, UniProt P01902); assay: pMHC stability assay (thermal stability by CD spectroscopy); type: physicochemical, murine; details: CD spectroscopy at 218 nm, 2.5 μM protein in PBS, 4-90 °C in 0.5 °C intervals, two-state trimer-to-monomer fit
Method: Thermal stability of H-2K^d complexes was assessed by circular dichroism (CD) spectroscopy, monitoring the change in ellipticities at 218 nm. Data were collected on an Aviv Model 215 spectropolarimeter (Aviv Biomedical Inc., Lakewood, NJ) using a 0.1-cm quartz cell. Proteins were dissolved in PBS at concentrations of 2.5 μM. Melting curves were recorded in 0.5 °C intervals from 4 °C up to a maximum temperature of 90 °C when protein aggregation was observed. Melting curves were analyzed assuming a two-state trimer-to-monomer transition from the native (N) to unfolded (U) conformation N3 ↔ 3U with an equilibrium constant K = [U]^3/[N3] = F/(3c^2(1 − F)^3), where F and c are the degree of folding and protein concentration, respectively. Data were fitted as described ([38]). Fitted parameters were the melting temperature (Tm), van't Hoff's enthalpy (ΔHvH), and the slope and intercept of the native baseline. Because all protein complexes aggregated upon unfolding, the ellipticity of the unfolded state was set as a constant of −4,500 degrees cm^2 dmol^−1 ([39], [40]).

[4] = test system: G9C8 TCR; assay: Surface plasmon resonance analysis of G9C8 TCR binding to peptide-H-2K^d; parameters: species or system NOD mouse; details: SPR, 25 °C
Method: Binding analysis was performed using a BIAcore 3000^TM equipped with a CM5 sensor chip as described previously ([41]). Binding analysis was performed four times in independent experiments using pMHC monomers generated in house and from the National Institutes of Health tetramer facility. Approximately 200–500 RU of peptide-H-2K^d (in complex with G9GF, G9G, or G9V) was attached to the CM5 sensor chip at a slow flow rate of 10 μl/min to ensure uniform distribution on the chip surface. Combined with the small amount of peptide-H-2K^d bound to the chip surface, this reduced the likelihood of off-rate-limiting mass transfer effects. The G9C8 TCR was purified and concentrated to ∼140 μM on the same day of surface plasmon resonance analysis to reduce the likelihood of TCR aggregation affecting the results. For equilibrium analysis, eight serial dilutions were prepared in triplicate for each sample and injected over the relevant sensor chips at 25 °C. TCR was injected over the chip surface using kinetic injections at a flow rate of 45 μl/min using H-2K^d·AYAAAAAAV or HLA-A*0201·ALWGPDPAAA in different experiments as negative controls.

H-2K^d, sequence (P01902 whole entry, looked up): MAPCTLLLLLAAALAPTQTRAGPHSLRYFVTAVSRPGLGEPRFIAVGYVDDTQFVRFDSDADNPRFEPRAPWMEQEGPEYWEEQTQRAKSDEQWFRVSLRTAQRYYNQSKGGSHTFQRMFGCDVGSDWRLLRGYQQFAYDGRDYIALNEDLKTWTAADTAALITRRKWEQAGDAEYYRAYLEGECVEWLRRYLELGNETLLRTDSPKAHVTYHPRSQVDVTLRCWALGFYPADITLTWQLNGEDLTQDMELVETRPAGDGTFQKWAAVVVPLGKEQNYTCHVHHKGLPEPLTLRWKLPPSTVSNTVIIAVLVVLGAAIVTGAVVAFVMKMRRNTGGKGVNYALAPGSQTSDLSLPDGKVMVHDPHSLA

Sequence | Tetramer+ (% of G9C8 clone stained by H-2K^d·peptide tetramer) [1] | Sensitivity of the G9C8 T-cell clone to G9G compared with G9GF [2] | Melting temperature of the H-2K^d complex, difference to G9G and G9GF (higher) [3] | G9C8 TCR affinity for the altered ligand compared with the native ligands (higher) [4] | Mean fluorescence intensity of tetramer staining, compared with H-2K^d·G9G tetramer (in words) ([1]; different concentrations of each tetramer) | Sensitivity of the G9C8 T-cell clone to G9V compared with G9G [2]
LYLVCGERG [G9G, native insulin B chain 9-mer peptide, tested as complex or tetramer with H-2K^d] | 85.7% | about 5 times | – | – | – | –
LYLVCGERV [G9V] | 87.9% | – | over 20 °C | > 10 times | substantially higher | at least 5 times
